Tests used:
[1] = test system: type-2 diabetes model db/db mice; test: 50% mechanical pain threshold (Von frey), type-2 diabetes db/db mice; assay type: in vivo, BKS db/db mice; settings: S26 46.8 mg/kg/day intragastric, Mean ± SD, n = 6
Experimental: Type-2 diabetes mice: male 18-week-old BKS db/db mice were purchased from Jiangsu Gempharmatech Biotechnology Co., Ltd. One week after adaptive feeding, the mice were divided into a control group (db/m mice), a model group (db/db mice) and a S26 administration group (46.8 mg/kg/day) respectively according to body weight and blood sugar, and administrated intragastrically for four weeks continuously. This experiment was based on a principle that claws of rodents would have a withdrawal reflex under mechanical stimulation. A Von frey tactile measuring set was purchased from Ugo Basile Company, and Von frey filaments could provide 0.008 g to 300 g of stimulating force, wherein a thickness of the filaments determined a magnitude of the stimulating force. Specific experimental method: filaments with proper thicknesses were selected to vertically stimulate a skin, and the stimulating force was adjusted by replacing the filaments, until the filaments were bent. One mouse was tested for 6 times to determine a threshold, and a 50% mechanical pain threshold of the mouse was calculated according to 50% threshold=(10^(Xf+k δ))/10000, which was detected weekly before and after administration respectively.

[2] = test system: type-2 diabetes model db/db mice; test: Motor nerve conduction velocity, type-2 diabetes db/db mice; assay type: in vivo, BKS db/db mice; settings: for Motor nerve conduction velocity: db/db mice, S26 46.8 mg/kg/day intragastric, Mean ± SD, n = 3
Experimental: Type-2 diabetes mice: male 18-week-old BKS db/db mice were purchased from Jiangsu Gempharmatech Biotechnology Co., Ltd. One week after adaptive feeding, the mice were divided into a control group (db/m mice), a model group (db/db mice) and a S26 administration group (46.8 mg/kg/day) respectively according to body weight and blood sugar, and administrated intragastrically for four weeks continuously. Before administration, 2 weeks and 4 weeks after administration, motor nerve conduction velocities (MNCV) of left and right sides of each group of mice were detected, and a mean value of the velocities of two sides was taken as a nerve conduction velocity of each mouse. Specific experimental method: (1) electrode placement: a stimulating electrode was placed on a nerve trunk, a recording electrode was placed on a muscle belly, and a reference electrode was placed on a muscle tendon; and a ground electrode was placed between the stimulating electrode and the recording electrode. (2) Calculation of motor nerve conduction velocity: distal and proximal ends of the nerve trunk were stimulated in a super-strong manner, a compound muscle action potential could be recorded twice on a muscle innervated by the nerve, different latent periods of the compound muscle action potentials were measured, and a distance between the distal and proximal ends was divided by a difference between the two latent periods, so as to obtain the nerve conduction velocity. Computational formula: nerve conduction velocity (m/s)=distance between two ends (cm)×10/difference between two latent periods (ms).

CC[C@@]12C=C(C(=O)NCC(=O)OCCOCCOCCOCCO)n3c4c(c5ccccc53)CCN(CCC1)[C@H]42 [Compound S26]
50% mechanical pain threshold ([1]; week 0 of administration): 1.33 ± 0.56^ g | 50% mechanical pain threshold ([1]; week 1 of administration): 1.04 ± 0.55^ g | 50% mechanical pain threshold ([1]; week 2 of administration): 0.91 ± 0.37 g | 50% mechanical pain threshold ([1]; week 3 of administration): 0.72 ± 0.39 g | 50% mechanical pain threshold ([1]; week 4 of administration): 0.71 ± 0.42 g | Motor nerve conduction velocity ([2]; week 0 of administration): 20.45 ± 3.94^ m/s | Motor nerve conduction velocity ([2]; week 2 of administration): 29.70 ± 4.27 m/s | Motor nerve conduction velocity ([2]; week 4 of administration): 36.57 ± 3.34 m/s | Motor nerve conduction velocity and anesthesia symptom (in words) ([2]; type-2 diabetes mouse, Tables 5 to 7): obviously improve

— patent US12600724B2, “Indole alkaloid and preparation method and use thereof” (NANJING UNIVERSITY OF CHINESE MEDICINE, priority 2022, dated 2026)
